Measurements reported in US11420935B2, “Bicyclic compounds” (Vivace Therapeutics, Inc., priority 2019, dated 2022).

Each molecule was assayed on 8×TBD luciferase reporter (YAP) in HEK293T cells (assay: YAP Reporter Assay (8×TBD firefly luciferase reporter)). Settings: Homo sapiens, HEK-293T, 24 h, read-out: Firefly Luciferase IC50 (μM).
Type: cell-based
Summary of the method: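 Stably transfected HEK293T cells (8×TBD firefly luciferase plus TK-renilla) were dosed with 10-point 1:3 dilutions from 3 μM final, quadruplicates, for 24 h at 37 °C. Dual-Glo read firefly and renilla luminescence; IC50 and maximal inhibition reported separately for each.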
`CC(C)NC(=O)c1ccc2c(Oc3ccc(Cl)cc3)cccc2c1` [Compound 1, 5-(4-chlorophenoxy)-N-isopropyl-2-naphthamide] gave an IC50 of less than 0.1 µM.

Same assay, conditions: Homo sapiens, HEK-293T; HEK293T cells stably transfected with 8×TBD luciferase reporter and pRLTK; 24-hr incubation; firefly luciferase activity; read-out: Firefly Luciferase IC50
`C[C@@H](CCO)NC(=O)c1ccc2c(Oc3ccc(C(F)(F)F)cc3)cccc2c1` [Compound 115, (S)—N-(4-hydroxybutan-2-yl)-5-(4-(trifluoromethyl)phenoxy)-2-naphthamide] was tested, and the IC50 was less than 0.1 µM.
`COC[C@@H](C)NC(=O)c1cnc2c(Oc3ccc(C(F)(F)F)cc3)cccc2c1` [Compound 16, N-[(1R)-2-methoxy-1-methyl-ethyl]-8-[4-(trifluoromethyl)phenoxy]quinoline-3-carboxamide] was tested, and the IC50 was 0.1 to 1 µM.
`C#C[C@@H](C)NC(=O)c1ccc2c(Oc3ccc(C(F)(F)F)cc3)cccc2c1` [Compound 61, (R)—N-(but-3-yn-2-yl)-5-(4-(trifluoromethyl)phenoxy)-2-naphthamide] showed an IC50 of less than 0.1 µM.
With `CS(=O)(=O)NC(=O)c1ccc2c(Oc3ccc(Cl)c(Cl)c3)cccc2c1` [Compound 6, 5-(3,4-dichlorophenoxy)-N-(methylsulfonyl)-2-naphthamide] the IC50 was less than 0.1 µM.
`O=C(NC(CO)Cc1ccccn1)c1ccc2c(Oc3ccc(C(F)(F)F)cc3)cccc2c1` (stereo not drawn) [Compound 80, N-[1-(hydroxymethyl)-2-(2-pyridyl)ethyl]-5-[4-(trifluoromethyl)phenoxy]naphthalene-2-carboxamide] was tested, and the IC50 was less than 0.1 µM.
In the case of `C[C@@H](NC(=O)c1ccc2c(Oc3ccc(C(F)(F)F)cc3)cccc2c1)c1nnnn1C` [Compound 56, (R)—N-(1-(1-methyl-1H-tetrazol-5-yl)ethyl)-5-(4-(trifluoromethyl)phenoxy)-2-naphthamide], the IC50 is reported as 0.1 to 1 µM.
In the case of `O=C(N[C@@H](CO)c1ccccn1)c1ccc2c(Oc3ccc(C(F)(F)F)cc3)cccc2c1` [Compound 120, (R)—N-(2-hydroxy-1-(pyridin-2-yl)ethyl)-5-(4-(trifluoromethyl)phenoxy)-2-naphthamide], the IC50 is reported as 0.1 to 1 µM.
Molecule `CC(C)NC(=O)c1ccc2c(Oc3ccc(C(F)(F)F)cc3)cccc2c1` [Compound 4, N-isopropyl-5-(4-(trifluoromethyl)phenoxy)-2-naphthamide] has an IC50 of less than 0.1 µM.
Work on `C[C@@H](NC(=O)c1ccc2c(Oc3ccc(C(F)(F)F)cc3)cccc2c1)c1cc(N)ccn1` [Compound 72, (R)—N-(1-(4-aminopyridin-2-yl)ethyl)-5-(4-(trifluoromethyl)phenoxy)-2-naphthamide] yielded an IC50 of less than 0.1 µM.
`C[C@@H](NC(=O)c1ccc2c(Oc3ccc(C(F)(F)F)cc3)cccc2c1)C1COC1` [Compound 40, (R)—N-(1-(oxetan-3-yl)ethyl)-5-(4-(trifluoromethyl)phenoxy)-2-naphthamide] showed an IC50 of less than 0.1 µM.
`COc1cc(Oc2ccc(C(F)(F)F)cc2)c2ncc(C(=O)NC(CO)c3ccccn3)cc2c1` (stereo not drawn) [Compound 118, N-(2-Hydroxy-1-(pyridin-2-yl)ethyl)-6-methoxy-8-(4-(trifluoromethyl)phenoxy)quinoline-3-carboxamide] was tested, and the IC50 was less than 0.1 µM.
Molecule `CC(=O)N1CC([C@H](C)NC(=O)c2ccc3c(Oc4ccc(C(F)(F)F)cc4)cccc3c2)C1` [Compound 100, (S)—N-(1-(1-acetylazetidin-3-yl)ethyl)-5-(4-(trifluoromethyl)phenoxy)-2-naphthamide] has an IC50 of 0.1 to 1 µM.
In the case of `O=C(N[C@H](CO)C1CNC1)c1ccc2c(Oc3ccc(C(F)(F)F)cc3)cccc2c1` [Compound 142, (S)—N-(1-(azetidin-3-yl)-2-hydroxyethyl)-5-(4-(trifluoromethyl)phenoxy)-2-naphthamide], the IC50 is reported as 0.1 to 1 µM.
`C[C@H](NC(=O)c1ccc2c(Oc3ccc(C(F)(F)F)cc3)cccc2c1)c1cccc(N)n1` [Compound 65, (S)—N-(1-(6-aminopyridin-2-yl)ethyl)-5-(4-(trifluoromethyl)phenoxy)-2-naphthamide] was tested, and the IC50 was 0.1 to 1 µM.
`CNCC[C@@H](C)NC(=O)c1ccc2c(Oc3ccc(C(F)(F)F)cc3)cccc2c1` [Compound 145, (R)-N-(4-(methylamino)butan-2-yl)-5-(4-(trifluoromethyl)phenoxy)-2-naphthamide] was tested, and the IC50 was less than 0.1 µM.
Work on `C[C@@H](NC(=O)c1ccc2c(Oc3ccc(C(F)(F)F)cc3)cccc2c1)c1cccc(N(C)C)n1` [Compound 77, (R)—N-(1-(6-(dimethylamino)pyridin-2-yl)ethyl)-5-(4-(trifluoromethyl)phenoxy)-2-naphthamide] yielded an IC50 of less than 0.1 µM.
`C[C@H](NC(=O)c1ccc2c(Oc3ccc(C(F)(F)F)cc3)cccc2c1)c1cc(N)ccn1` [Compound 71, (S)—N-(1-(4-aminopyridin-2-yl)ethyl)-5-(4-(trifluoromethyl)phenoxy)-2-naphthamide] gave an IC50 of 0.1 to 1 µM.
Molecule `NS(=O)(=O)c1ccc2c(Oc3ccc(C(F)(F)F)cc3)cccc2c1` [Compound 117, 5-(4-(trifluoromethyl)phenoxy)naphthalene-2-sulfonamide] has an IC50 of less than 0.1 µM.
For `COC[C@H](C)NC(=O)c1ccc2c(Oc3ccc(C(F)(F)F)cc3)cccc2c1` [Compound 28, (S)—N-(1-methoxypropan-2-yl)-5-(4-(trifluoromethyl)phenoxy)-2-naphthamide], the IC50 was less than 0.1 µM.
In the case of `CNS(=O)(=O)c1ccc2c(Oc3ccc(Cl)c(Cl)c3)cccc2c1` [Compound 9, 5-(3,4-dichlorophenoxy)-N-methylnaphthalene-2-sulfonamide], the IC50 is reported as less than 0.1 µM.
With `O=C(NC(CCO)CCO)c1ccc2c(Oc3ccc(C(F)(F)F)cc3)cccc2c1` [Compound 121, N-(1,5-dihydroxypentan-3-yl)-5-(4-(trifluoromethyl)phenoxy)-2-naphthamide] the IC50 was less than 0.1 µM.
Molecule `C[C@H](CCN)NC(=O)c1ccc2c(Oc3ccc(C(F)(F)F)cc3)cccc2c1` [Compound 112, (R)—N-(4-aminobutan-2-yl)-5-(4-(trifluoromethyl)phenoxy)-2-naphthamide] has an IC50 of less than 0.1 µM.
`CC(C)NC(=O)c1cnc2c(Oc3ccc(C(F)(F)F)cc3)cc(F)c(F)c2c1` [Compound 81, 5,6-difluoro-N-isopropyl-8-(4-(trifluoromethyl)phenoxy)quinoline-3-carboxamide] showed an IC50 of less than 0.1 µM.
In the case of `C[C@H](CO)NC(=O)c1cnc2c(Oc3ccc(C(F)(F)F)cc3)cccc2c1` [Compound 15, N-[(1R)-2-hydroxy-1-methyl-ethyl]-8-[4-(trifluoromethyl)phenoxy]quinoline-3-carboxamide], the IC50 is reported as less than 0.1 µM.
`C[C@@H](NC(=O)c1cnc2c(Oc3ccc(C(F)(F)F)cc3)cccc2c1)c1ccccn1` [Compound 17, N-[(1R)-1-(2-pyridyl)ethyl]-8-[4-(trifluoromethyl)phenoxy]quinoline-3-carboxamide] showed an IC50 of 0.1 to 1 µM.
With `C[C@@H](NC(=O)c1ccc2c(Oc3ccc(C(F)(F)F)cc3)cccc2c1)C1CCNCC1` [Compound 150, (R)-N-(1-(piperidin-4-yl)ethyl)-5-(4-(trifluoromethyl)phenoxy)-2-naphthamide] the IC50 was less than 0.1 µM.
With `O=C(N[C@@H](CCO)c1ccccn1)c1ccc2c(Oc3ccc(C(F)(F)F)cc3)cccc2c1` [Compound 110, (S)—N-(3-hydroxy-1-(pyridin-2-yl)propyl)-5-(4-(trifluoromethyl)phenoxy)-2-naphthamide] the IC50 was less than 0.1 µM.
Work on `O=C(NC1(c2ccccc2)CC1)c1ccc2c(Oc3ccc(C(F)(F)F)cc3)cccc2c1` [Compound 36, N-(1-phenylcyclopropyl)-5-[4-(trifluoromethyl)phenoxy]naphthalene-2-carboxamide] yielded an IC50 of less than 0.1 µM.
Work on `O=C(N[C@H](CO)c1ccccn1)c1ccc2c(Oc3ccc(C(F)(F)F)cc3)cccc2c1` [Compound 119, (S)—N-(2-hydroxy-1-(pyridin-2-yl)ethyl)-5-(4-(trifluoromethyl)phenoxy)-2-naphthamide] yielded an IC50 of less than 0.1 µM.
